{"source": "paper PMC9673926", "about": "“Nucleotide binding as an allosteric regulatory mechanism for Akkermansia muciniphila β-N-acetylhexosaminidase Am2136” (Gut Microbes, 2022)", "molecules": {"B1": {"name": "E649A (Akkermansia muciniphila ATCC BAA-835; E649A) (protein)", "chain": "QDAKQIADSLSIPPVKAGAKQLPMPSVSGAQIKLLGADYEQLVNSKGKIAPVISDTPVNVSFKVTKDGKEAVSKDYEIMLQAPQAAQGNPKPRIIPEILQWKGGQGEYKLGNTVTIACPDKELGKLFAADMEDVLGKKVKLVAPGAKADISLSLLKGGNLGREGYRLQIARDGVRLGAAAPTGLFWGTRTLLQMLRQTPGSVPCGTAVDFPRYQLRGFMLDVARTPYPLSYLKDVIRTMAWYKMNDLHLVINNNYIFHEHYVDNGHDPFKESYAAFRLESKMKGKDGTPLTARDLFYTKKEFADLVSYARKYGVNIVPEFDTPGHALSFTRLRPDLIYKGPMNHEKRRCEMLDAANPETIDLVSKVFDEYMLKDPKLGRPVFADCGVVHVGADEFYGDKEDYRHFANAVLTHALKRGYTPRIWGSLSAKPGKTPVVSKGVQMNLWSTGWMKAWEAVNQGYDVINTNDGALYIVPFAGYYRMDRNHKGLYNNWIPNRIGNETLPSGHPQLLGGTFAVWNDETDIMHTGYAPYDIWGIISGSMDVLSQKLWGTAKAPDTFEQHRELVSSIGNAPRTNPLHKWKDSQPLTVKPSSLPQKLDKPALGPNYRLTMELELTAAPEGKEQVLLAAPAGELLAVMKDGTVGFRRDDSLEFSFGAKLPVGKKVKVEIVGEPEKTSLLLDGEPAGTAVLKNFSDKSKDFSDKFKHRPKVHRSTFILPLKELGSSFQGKVFHMNVQPL"}, "B2": {"name": "Y327F+Y331F (Akkermansia muciniphila ATCC BAA-835; Y327F/Y331F) (protein)", "chain": "B1 chain with Y308F, Y312F, A630E"}, "B3": {"name": "R592A (Akkermansia muciniphila ATCC BAA-835; R592A) (protein)", "chain": "B1 chain with R573A, A630E"}, "B4": {"name": "P595A+H597A (Akkermansia muciniphila ATCC BAA-835; H597A/P595A) (protein)", "chain": "B1 chain with P576A, H578A, A630E"}, "B5": {"name": "R256A (Akkermansia muciniphila ATCC BAA-835; R256A) (protein)", "chain": "B1 chain with R237A, A630E"}}, "key": {"[1]": {"molecular_target": "T1, Am2136 WT (Akkermansia muciniphila, UniProt B2UPR7)", "T1 construct": "The coding region (residue Q20-L756) of Am2136 without signal peptide was based on UniProt; 6XHis (N); made in house; host or cells: E. coli BL21 (DE3)", "T1 sequence (B2UPR7 20-756)": "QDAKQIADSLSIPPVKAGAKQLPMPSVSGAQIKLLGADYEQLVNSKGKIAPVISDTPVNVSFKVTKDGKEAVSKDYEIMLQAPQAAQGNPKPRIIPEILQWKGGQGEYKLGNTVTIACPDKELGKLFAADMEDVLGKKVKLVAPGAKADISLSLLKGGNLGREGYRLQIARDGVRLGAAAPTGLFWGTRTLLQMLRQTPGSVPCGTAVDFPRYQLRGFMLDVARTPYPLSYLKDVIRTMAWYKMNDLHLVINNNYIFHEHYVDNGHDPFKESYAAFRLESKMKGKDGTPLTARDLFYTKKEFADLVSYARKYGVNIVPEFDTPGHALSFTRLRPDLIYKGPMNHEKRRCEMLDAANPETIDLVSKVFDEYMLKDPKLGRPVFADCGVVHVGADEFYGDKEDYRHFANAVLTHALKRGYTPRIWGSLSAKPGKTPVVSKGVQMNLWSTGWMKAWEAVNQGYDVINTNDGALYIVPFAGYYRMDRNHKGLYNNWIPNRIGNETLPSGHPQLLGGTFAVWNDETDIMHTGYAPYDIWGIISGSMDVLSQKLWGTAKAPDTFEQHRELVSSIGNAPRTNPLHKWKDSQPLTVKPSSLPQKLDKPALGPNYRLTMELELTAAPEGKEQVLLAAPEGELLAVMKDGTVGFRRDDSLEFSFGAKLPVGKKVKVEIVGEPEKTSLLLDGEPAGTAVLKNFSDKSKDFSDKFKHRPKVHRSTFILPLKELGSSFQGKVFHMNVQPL", "test": "Nucleotide binding affinity by intrinsic fluorescence", "settings": "WT dialyzed", "experimental": "The nucleotide binding ability was determined on Fluorescence Spectrometer Duetta (HORIBA) by measuring the change of peak intensity. The fluorescence was excited at 286 nm and emitted at 336 nm. And the measurement was processed under 400 V voltage with 2.5 nm excitation slit and 5 nm emission slit. […] The sample was incubated at 4°C for 5 min before testing."}, "[2]": {"molecular_target": "T2, Am2136 WT dialyzed (Akkermansia muciniphila, UniProt B2UPR7)", "T2 construct": "The coding region (residue Q20-L756) of Am2136 without signal peptide was based on UniProt; 6XHis (N); made in house; host or cells: E. coli BL21 (DE3)", "T2 sequence (B2UPR7 20-756)": "as above", "test": "Metal ion effect on enzyme hydrolysis activity", "type": "biochemical", "settings": "for Vmax / kcat/Km: WT dialyzed + 2 mM metal ion, substrate pNP-β-GlcNAc; for effect of metal ion on Am2136 catalytic activity: 2 mM metal ion", "experimental": "The purified protein was added with the final concentration of 5 mM EDTA and incubated on ice for 20 min. Then the protein was dialyzed with the buffer solution (2 mM EDTA, 25 mM Tris, 150 mM NaCl, 5% Glycerol, pH 8.0) at 4°C for 4 h at a volume ratio of 1:350. After that, the protein was dialyzed with the EDTA-free buffer for 4 h and repeated twice.\nThe dialyzed protein was incubated with other metal ions on ice for 5 min. The 50 μL reaction mixture contains 2 μM protein, 0.125–4 mM p-nitrophenyl (pNP)-β-GlcNAc, 2 mM metal ions (MgCl2, CaCl2, CuCl2, ZnCl2, CoCl2), 25 mM Tris pH 8.0 and 150 mM NaCl."}, "[3]": {"molecular_target": "T3, Am2136 (Akkermansia muciniphila, UniProt B2UPR7)", "T3 construct": "The coding region (residue Q20-L756) of Am2136 without signal peptide was based on UniProt; 6XHis (N); made in house; host or cells: E. coli BL21 (DE3)", "T3 sequence (B2UPR7 20-756)": "as above", "test": "Oligosaccharide hydrolysis, released GlcNAc by HPLC-QqQ-MS", "type": "biochemical", "settings": "1.2 mM substrate, 4 μM Am2136, 37°C, 240 min", "experimental": "The 30 μL reaction mixture contains 1.2 mM oligosaccharides (Sigma), 4 μM proteins, 150 mM NH4Ac pH 8.0. The qualitative and quantitative analyses were performed by high-performance liquid chromatography-tandem triple quadrupole mass spectrometry (HPLC-QqQ-MS) (Agilent 1260 HPLC system and 6460 QqQ system, Agilent Technologies, USA). The separation was performed on a Chromplus C18 column (4.6 × 250 mm, 5 μm) at 25°C. The samples were isocratic eluted with 0.1% formic acid in water and acetonitrile (80:20, v/v) at a flow rate of 0.5 mL/min with an injection volume of 5 μL. The mass spectrometer was operated in the electron spray ionization mode with drying gas temperature of 300°C, N2 gas flow at 11 L/min, nebulizer pressure of 15 psi, and capillary voltage of 4000 V.\nQualitative analysis was carried out by MS2 full-scan mode, while quantitative analysis was performed by multiple reaction monitoring (MRM) in positive ionization mode. Amygdalin (IS) was used as internal standard, and the sample was prepared by adding 20 μL internal standard (116.96 μM) and 170 μL water to 10 μL reaction mixture. The ion transitions were chosen as m/z 222.0→203.9 for GlcNAc and m/z 458.1→296.0 for IS. The fragmentor voltage values of GlcNAc and IS were set to 70 and 130 V, respectively. The collision energies of GlcNAc and IS were set to 1 and 10 eV, respectively. The signal acquisition and peak integration were performed using the MassHunter Qualitative Analysis Software (Agilent, USA). The concentration of GlcNAc in each sample was determined by using the established calibration curve (y = 0.768x + 2.4873) made from the standard compound."}, "[4]": {"substrate": "CC(=O)N[C@H]1[C@H](Oc2ccc([N+](=O)[O-])cc2)O[C@H](CO)[C@@H](O)[C@@H]1O", "test": "purified protein, by the assay type", "settings": "pH 8.0; 37.0 °C"}}, "note": "Residue numbers refer to the chain shown, from its start. In names and notes the source's numbering stands."}
{"molecule": "[Ca+2].[Cl-].[Cl-]", "note": "[Ca^2+, CaCl2]", "values": [{"measurement": "effect of ion on GDP binding to Am2136", "setting": "[1]", "result": "did not exhibit obvious behavioral effect on GDP binding"}, {"measurement": "Vmax", "setting": "[2]", "result": "447 ± 14", "unit": "µmol/min"}, {"measurement": "kcat/Km", "setting": "[2]", "result": "128000 ± 2000", "unit": "M⁻¹ s⁻¹"}]}
{"molecule": "[Cl-].[Cl-].[Co+2]", "note": "[Co^2+, CoCl2]", "values": [{"measurement": "effect of metal ion on Am2136 catalytic activity", "setting": "[2]", "result": "significant inhibitory effects"}]}
{"molecule": "[Cl][Cu][Cl]", "note": "[Cu^2+, CuCl2]", "values": [{"measurement": "effect of metal ion on Am2136 catalytic activity", "setting": "[2]", "result": "significant inhibitory effects"}]}
{"molecule": "CC(=O)N[C@H]1[C@H](O[C@@H]2C(O)O[C@H](CO)[C@@H](O)[C@@H]2O)O[C@H](CO)[C@@H](O)[C@@H]1O", "note": "(stereo partly drawn) [GlcNAc-(β1,2)Man]", "values": [{"measurement": "GlcNAc released", "setting": "[3]; with 1 mM GDP", "result": 851.33, "unit": "µM"}, {"measurement": "GlcNAc released", "setting": "[3]; without GDP", "result": 671, "unit": "µM"}]}
{"molecule": "CC(=O)N[C@H]1[C@H](OC[C@H]2O[C@@H](O[C@H]3[C@H](O)[C@@H](O)C(O)O[C@@H]3CO)[C@H](O)[C@@H](O)[C@H]2O)O[C@H](CO)[C@@H](O)[C@@H]1O", "note": "(stereo partly drawn) [GlcNAc-(β1,6)Gal-(β1,4)Glc]", "values": [{"measurement": "GlcNAc released", "setting": "[3]; with 1 mM GDP", "result": 712.55, "unit": "µM"}, {"measurement": "GlcNAc released", "setting": "[3]; without GDP", "result": 549, "unit": "µM"}]}
{"molecule": "CC(=O)N[C@H]1[C@@H](Oc2ccc([N+](=O)[O-])cc2)O[C@H](CO[C@@H]2O[C@H](CO)[C@@H](O)[C@H](O)[C@H]2NC(C)=O)[C@H](O)[C@@H]1O", "note": "[GlcNAc-(β1,6)GalNAc-α-pNP]", "values": [{"measurement": "GlcNAc released", "setting": "[3]; with 1 mM GDP", "result": 451.25, "unit": "µM"}, {"measurement": "GlcNAc released", "setting": "[3]; without GDP", "result": 308, "unit": "µM"}]}
{"molecule": "COC1O[C@H](CO)[C@H](O)[C@H](O[C@@H]2O[C@H](CO)[C@@H](O)[C@H](O)[C@H]2NC(C)=O)[C@H]1O", "note": "(stereo partly drawn) [Methyl GlcNAc-(β1,3)Gal]", "values": [{"measurement": "GlcNAc released", "setting": "[3]; with 1 mM GDP", "result": 610.53, "unit": "µM"}, {"measurement": "GlcNAc released", "setting": "[3]; without GDP", "result": 448, "unit": "µM"}]}
{"molecule": "[Cl-].[Cl-].[Mg+2]", "note": "[Mg^2+, MgCl2]", "values": [{"measurement": "effect of ion on GDP binding to Am2136", "setting": "[1]", "result": "did not exhibit obvious behavioral effect on GDP binding"}, {"measurement": "Vmax", "setting": "[2]", "result": "435 ± 9", "unit": "µmol/min"}, {"measurement": "kcat/Km", "setting": "[2]", "result": "151000 ± 3000", "unit": "M⁻¹ s⁻¹"}]}
{"molecule": "[Cl-].[Cl-].[Zn+2]", "note": "[Zn^2+, ZnCl2]", "values": [{"measurement": "effect of metal ion on Am2136 catalytic activity", "setting": "[2]", "result": "significant inhibitory effects"}]}
{"molecule": "B1", "values": [{"measurement": "Km", "setting": "[4]", "result": "1450 ± 90", "unit": "µM"}]}
{"molecule": "B2", "values": [{"measurement": "Km", "setting": "[4]", "result": "1420 ± 60", "unit": "µM"}]}
{"molecule": "B3", "values": [{"measurement": "Km", "setting": "[4]", "result": "1480 ± 60", "unit": "µM"}]}
{"molecule": "B4", "values": [{"measurement": "Km", "setting": "[4]", "result": "1580 ± 70", "unit": "µM"}]}
{"molecule": "B5", "values": [{"measurement": "Km", "setting": "[4]", "result": "1490 ± 60", "unit": "µM"}]}
